Entries after “also recorded” stand apart in the source; their conditions may differ. Read-outs that look alike come from different tables or passages of the source. Some results are limits rather than exact numbers.

What is called IC50 is the concentration that gives 50% inhibition. For orientation: CLint scaled means the capacity of the preparation to metabolise the compound, expressed as a volume cleared per time. The low end stands for greater metabolic stability, the high end for faster metabolism. As a reminder, the half-life is how long it takes for the measured level to halve.

The conditions of data set [1]: in mice; cited from earlier work.
The next data set deals with parasitemia. The conditions noted are these: cited from earlier work.
The test system of the next data set is P. falciparum. The conditions noted are these: read-out: in vitro IC50; cited from earlier work.
Data set [2] in a line: Metabolism by human liver microsomes. Type of data set: in vitro ADME.
Data set [3] can be described thus: Stability in mouse serum at 37 °C. Format: in vitro ADME.
A short description of data set [4]: Solubility in aqueous buffers. Type of data set: physicochemical.
The test system of the next data set is human cancer cells. The conditions noted are these: cited from earlier work.
Data set [5] can be described thus: Metabolism by human liver S9 fraction. Format: in vitro ADME.
Data set [6] in a line: In vivo pharmacokinetic study, single IV or IP injection to healthy mice.
Data set [7] is described as follows: Stability in human liver cytosolic fraction. Format: in vitro ADME. The settings on record: r^2 = 0.24, p = 0.10.
A further data set concerns Plasmodium yoelii. The data set is described as follows: In vivo efficacy in mice infected with Plasmodium yoelii, parasite load by FACS. Further details: species or system Swiss webster female mice.
The format of data set [8] is in vivo, mice. The settings on record: at the termination of efficacy trials.
The next data set relates to mice. The data set is described as follows: Toxicity to mice in efficacy and PK studies. Format: in vivo. The settings on record: dosing regime of efficacy study (5-10 mg/kg once daily) and PK study.
For data set [9] the following is noted: in vivo, iv; cited from earlier work.
The conditions of data set [10]: cited from earlier work.

Regarding `C[C@H]1Cc2c([nH]c3cc(Cl)c(F)cc23)[C@@]2(N1)C(=O)Nc1ccc(Cl)cc12` [NITD609, spirotetrahydro-β-carboline NITD609], the clearance rate in data set [1] is on record as 9.8 mL/min/kg.
Turning to `CC[C@H](C)C(=O)O[C@@H]1[C@H]2C(C)=CC(=O)[C@@H](O)[C@]2(C)[C@H]2[C@@H](O)[C@H](O)[C@@]3(C)OC[C@@]24[C@@H]1OC(=O)[C@H](OC(=O)[C@@H](C)CC)[C@@H]34` [simalikalactone E], the “reduction of parasitemia in vivo” value in the data set on parasitemia (0.5 mg/kg IP dosing) and with parasitemia (1 mg/kg oral dosing) was 50% in each case. Further, the IC50 in the data set with P. falciparum was 24 to 68 nM.
Consider `CC1=C2Cc3cc(ccc3O)C(=O)O[C@H](C(C)(C)Br)CC[C@](C)(O)[C@H](Br)CC[C@]2(C)[C@@H](Br)CC1` [compound 1, bromophycolide A], for which the CLint scaled at 24 h, 10 µM in [2] (human, human liver microsomes) was determined as 1.6 ± 0.5 mL/min/kg; in data set [5] (human, human liver S9 fraction, CLint, S9 fraction with UDPGA), 1.1 ± 0.1 mL/min/kg. Further, the “stability in the presence of human microsomes” value in data set [2] (summary statement) was “moderately stable”. Further, the “loss after incubation in mouse serum” value in [3] (37 °C, 24 h (r^2 = 0.20, p=0.27)) is “no significant loss”. Further, in data set [3] (over 24 h), the “stability in mouse serum” value was “stable”. For the same molecule, the “solubility in aqueous buffers” value in data set [4] is reported as “poor solubility”. For the same molecule, in the data set with human cancer cells, the “differential selectivity among eukaryotic cell lines” value was 10 fold. In addition, the IC50 in the data set on human cancer cells (human cancer cells) is > 6000 nM. Also, the “metabolism by human liver sub-cellular fractions” value in data set [5] (after 4 h) is “negligible metabolism”. This molecule also had a half-life in data set [5] (human, human liver S9 fraction) of 9.5 ± 0.8 h. For the same molecule, the bioavailability result in data set [6] (IP vs IV dosing) was “good bioavailability”. For the same molecule, in [6] (IV, 23 mg/kg, plasma), the “Cp^0” value came to 24000 ± 6000 ng/mL. Besides, in data set [7], the “stability in the presence of the human liver cytosolic fraction” value is recorded as “stable”. Besides, the “parasitemia in treated mice” value in the data set with Plasmodium yoelii (after the second dose, 10 mg/kg) stood at 10.0 ± 0.5%. Moreover, the “final parasitemia (FACS)” value with Plasmodium yoelii (dosed at 10 mg/kg, control 32 ± 2 %) is listed as 17 ± 4%. For the same molecule, the “concentration in blood and plasma of infected mice” value in data set [8] was “below the limit of detection”. Also, the toxicity to mice entry with mice is “lack of mouse toxicity; also recorded: non-toxic”.
With `C[C@H]1[C@H](OC(=O)CCC(=O)O)O[C@@H]2O[C@@]3(C)CC[C@H]4[C@H](C)CC[C@@H]1[C@@]24OO3` [artesunate], the half-life result in data set [9] was “less than 10 min”.
`CCN(CC)CCCC(C)Nc1ccnc2cc(Cl)ccc12` (centres unmarked) [chloroquine]: in [10], the “apparent volume of distribution” value is 200 L/kg.

Source of the values: PMC3804352 (ACS medicinal chemistry letters, 2013).
